8 compounds from patent publication US5021421A, “2-(1-Piperazinyl)-4-phenylcycloalkanopyridine derivatives, processes for the production thereof, and pharmaceutical composition containing the same” (Dainippon Pharmaceutical Co., Ltd., priority 1989, dated 1991) can be followed below.

Where two headings read alike, the source gives them in different places.

In data set [1] the target is T1, serotonin (S2) receptor (Rattus norvegicus, UniProt P14842).
T1 construct: Crude synaptosome fractions were prepared from some brain regions in rats for receptor sources; from tissue
T1 sequence (P14842 whole entry): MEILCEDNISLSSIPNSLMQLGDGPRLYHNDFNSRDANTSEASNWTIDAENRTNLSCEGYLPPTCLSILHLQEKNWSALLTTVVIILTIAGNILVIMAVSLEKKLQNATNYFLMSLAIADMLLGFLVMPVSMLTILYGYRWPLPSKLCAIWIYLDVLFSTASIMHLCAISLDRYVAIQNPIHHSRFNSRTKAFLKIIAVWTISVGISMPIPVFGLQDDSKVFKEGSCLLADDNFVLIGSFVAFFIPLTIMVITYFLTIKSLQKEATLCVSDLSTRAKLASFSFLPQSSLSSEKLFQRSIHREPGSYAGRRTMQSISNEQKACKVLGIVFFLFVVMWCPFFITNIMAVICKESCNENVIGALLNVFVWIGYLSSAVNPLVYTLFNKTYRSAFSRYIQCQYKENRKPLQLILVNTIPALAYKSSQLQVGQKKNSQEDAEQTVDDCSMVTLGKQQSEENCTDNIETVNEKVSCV
Briefly: In vitro binding to serotonin (S2) receptor, [3H] ketanserin. The arrangement: species or system rats. As to conditions: for IC50: [3H] ketanserin, rat brain crude synaptosome fraction. The procedure: (§1) Dopamine (D2), serotonin (S1, S2) and adrenaline (α1) receptor binding assays were carried out according to the methods of I. Creese et al. [Eur. J. Pharmacol., 46, 377 (1977), S. J. Peroutka et al. [Mol. Pharmacol. 16, 687 (1979)], J. E. Leysen et al. [Mol. Pharmacol., 21, 301 (1982)] and D. C. U'Prichard et al. [Mol. Pharmacol., 13, 454 (1977)], respectively.
(§2) Crude synaptosome fractions were prepared from some brain regions in rats for receptor sources. Radioactive ligands used were [^3 H] spiperone (D2), [^3 H] serotonin (S1), [^3 H] ketanserin (S2) and [^3 H] WB-4101 (α1). The binding assay was performed by incubating aliquots of synaptosome fraction in buffer solution (final volume: 1 ml) containing a [^3 H] labelled ligand and a test compound. The assay was terminated by rapid filtration through Whatman GF/B glass fiber filters attached to a cell-harvester (Brandel) and radioactivity on the filters was counted in a Packard Triscarb scintillation counter. Specific binding was calculated as a difference between amounts of radioactivity in the presence and absence of an unlabelled ligand [spiperone (D2), serotonin (S1), methysergide (S2) and prazosin (α1)]. The IC50 value of the test compounds (concentration causing 50% inhibition of [^3 H] ligand specific binding) was determined by probit analysis.

In data set [2] the target is adrenaline (α1) receptor. Briefly: In vitro binding to adrenaline (α1) receptor, [3H] WB-4101. The arrangement: species or system rats. As to conditions: [3H] WB-4101, rat brain crude synaptosome fraction. The procedure: as §1, §2
The test system of data set [3] is apomorphine-induced vomiting. As to the kind of experiment: Antagonistic effect on apomorphine-induced vomiting. In kind it is in vivo, dogs (Beagle). The method in brief:
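Beagle dogs (8–15 kg, 3–4 per group) received test compound, then 0.3 mg/kg apomorphine hydrochloride s.c. two hours later. Vomiting episodes counted over 1 h; percent inhibition calculated against a non-dosed control group.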

The target of data set [4] is T2, dopamine (D2) receptor (Rattus norvegicus, UniProt P61169).
T2 construct: Crude synaptosome fractions were prepared from some brain regions in rats for receptor sources; from tissue
T2 sequence (P61169 whole entry): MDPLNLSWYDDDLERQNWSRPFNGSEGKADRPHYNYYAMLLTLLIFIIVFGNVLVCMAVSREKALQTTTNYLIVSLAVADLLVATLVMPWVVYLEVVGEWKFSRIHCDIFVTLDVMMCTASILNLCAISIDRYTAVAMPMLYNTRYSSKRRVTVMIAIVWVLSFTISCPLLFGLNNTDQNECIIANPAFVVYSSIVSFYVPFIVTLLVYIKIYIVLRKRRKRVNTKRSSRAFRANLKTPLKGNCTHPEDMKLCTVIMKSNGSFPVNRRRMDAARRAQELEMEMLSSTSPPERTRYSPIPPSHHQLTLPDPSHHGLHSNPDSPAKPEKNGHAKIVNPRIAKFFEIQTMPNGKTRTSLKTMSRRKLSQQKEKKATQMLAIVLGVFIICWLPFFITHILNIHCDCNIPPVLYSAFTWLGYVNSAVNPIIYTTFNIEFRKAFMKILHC
Briefly: In vitro binding to dopamine (D2) receptor, [3H] spiperone. The arrangement: species or system rats. The procedure:
as §1, §2

Data set [5] concerns mice. As to the kind of experiment: Acute toxicity. The conditions noted are these: dose 500 mg/kg oral, 7 days observation. In kind it is in vivo, mice (Std-ddy strain). An excerpt:
A group of 5 male mice (Std-ddy strain, 25-30 g) was used. The test compound was orally administered to the test animal in the form of a 0.5% tragacanth solution or suspension, and for 7 days after the administration of the test compound, the lethality of animals was observed.

Data set [6] relates to brain monoamine metabolites. As to the kind of experiment: Increasing effect on concentration of brain monoamine metabolites. In kind it is in vivo, mice (Std-ddy strain). The conditions noted are these: Mus musculus, 2 h, non-dosed=100. The method in brief:
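Male Std-ddy mice (25-30 g, n=5) decapitated 2 h after dosing; brain extracts analysed by HPLC with electrochemical detection for DOPAC, HVA, MOPEG and 5-HIAA. Values expressed as % of non-dosed controls (=100).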

For data set [7], the target named is serotonin (S1) receptor. As to the kind of experiment: In vitro binding to serotonin (S1) receptor, [3H] serotonin. The arrangement: species or system rats. As to conditions: rat brain crude synaptosome fraction. On the procedure:
as §1, §2

Data set [8] has as its system scopolamine-induced deficit of spontaneous alternation. Briefly: Improving effect on scopolamine-induced deficit of spontaneous alternation behavior (T-maze). In kind it is in vivo, mice (Std-ddY strain). The conditions noted are these: scopolamine hydrobromide 1 mg/kg i.p. The text has this:
A group of 15-25 male mice (Std-ddY strain, 22-28 g) was used for evaluating effect of the test compounds on scopolamine-induced deficit of spontaneous alternation in a T-maze, which is a known animal model of memory impairment due to hypofunction of the cholinergic nervous system. The T-maze used consists of a stem and two arms which are 25 cm long, 5 cm wide and 10 cm high. The first 10 cm of the stem and last 10 cm of each arm are divided by sliding doors into start and goal boxes.
A test compound and scopolamine hydrobromide (1 mg/kg) were intraperitoneally administered to each mouse, and after 30 minutes a test of spontaneous alternation task in the T-maze was continuously repeated for 8 trials. Commonly, naive mice alternate each (right and left) goal box in turn, but scopolamine-treated animals tend to enter the same goal box repeatedly. The effect of the test compounds was expressed as % improvement (complete improvement to the alternation level of non-dosed mice=100%).

For data set [9], the system named is cycloheximide-induced amnesia of passive avoidance response. Briefly: Improving effect on cycloheximide-induced amnesia of passive avoidance response. The conditions noted are these: cycloheximide 60 mg/kg s.c., retention at 24 h. The data set is classed as in vivo, mice (Std-ddY strain). The text has this: Anti-amnesic effect of the test compounds was examined using mice given cycloheximide, which is a known amnesia-inducing agent.
A group of 15-20 male mice (Std-ddY strain, 27-33 g) was subjected to training and retention trials for a passive avoidance task in a step-down apparatus (30×30×50 cm) with a grid floor and a wooden platform (4×4×4 cm) in a center of the floor. In the training trial, each mouse was first placed on the platform. When the mouse stepped down on the grid floor, an electric shock (1 Hz, 0.5 sec, 60 VDC) was delivered to the feet for 15 seconds. Immediately after the training trial, cycloheximide (60 mg/kg, s.c.) and a test compound (i.p.) were administered. The retention trial was carried out 24 hours thereafter, the time from placing again each mouse placed on the platform until stepping down on the grid floor (step-down latency) was measured. The step-down latency in the retention trial was markedly shortened by treatment of cycloheximide (amnesia). The effect of test compounds was assessed by % improvement (complete improvement to the latency level of non-dosed animals=100%).

Data set [10] in a line: Psychotropic / anti-psychotic (neuroleptic) activity, general statement. The conditions noted are these: experiments by the present inventors.
The mark [11] stands for this setting: Canis lupus familiaris, sc, apomorphine 0.3 mg/kg s.c. 2 h after compound, read-out: Inhibitory ratio (apomorphine-induced vomiting).
Where [12] appears, read: [3H] spiperone, rat brain crude synaptosome fraction, read-out: IC50 D2.
Where [13] appears, read: read-out: DOPAC concentration, % of control.
Setting [14] is: read-out: HVA concentration, % of control.
[15] abbreviates: read-out: 5-HIAA concentration, % of control.
The mark [16] stands for this setting: read-out: MOPEG concentration, % of control.
The mark [17] stands for this setting: Canis lupus familiaris, sc, 2 h, read-out: Inhibitory ratio (apomorphine-induced vomiting).

In the case of `CCN1CCN(c2cc(-c3ccc(F)cc3)c3c(n2)CCCCCC3)CC1` [Example 1a, 2-(4-ethyl-1-piperazinyl)-4-(4-fluorophenyl)-5,6,7,8,9,10-hexahydrocycloocta[b]pyridine], the IC50 in data set [1] amounted to 9.9 nM; in data set [2], 83 nM; in data set [4] (setting [12]), 24 nM. Besides, in [3] (setting [11]), the inhibition in vivo at 0.2 mg/kg worked out at 100%. Also, in data set [5], the “Number of dead animals / Number of test animals” value is on record as 0/5.
Consider `CCN1CCN(c2cc(-c3ccc(F)cc3F)c3c(n2)CCCCCC3)CC1` [Example 2b, 2-(4-ethyl-1-piperazinyl)-4-(2,4-difluorophenyl)-5,6,7,8,9,10-hexahydrocycloocta[b] pyridine], for which the response vs control in vivo at 2 mg/kg is 364% in data set [6] (setting [13]) and 271% in data set [6] (setting [14]). Besides, the inhibition in vivo at 0.2 mg/kg in data set [3] (setting [11]) was 100%. Besides, the “Number of dead animals / Number of test animals” value in data set [5] is listed as 0/5.
Turning to `CCN1CCN(c2cc(-c3ccc(F)cc3)c3c(n2)CCC3)CC1` [Example 6, 2-(4-Ethyl-1-piperazinyl)-4-(4-fluorophenyl)-6,7-dihydro-5H-1-pyrindine], the IC50 was 1500 nM in [7], 7.6 nM in data set [1], 6.9 nM in data set [2] and 19 nM in data set [4] (setting [12]). Further, the response vs control in vivo at 10 mg/kg in data set [6] (setting [15]) came out at 103%; in data set [6] (setting [13]), 321%; in data set [6] (setting [14]) it was 242%; in [6] (setting [16]) it was 115%. Besides, the inhibition in vivo at 1 mg/kg in data set [3] (Canis lupus familiaris, sc, dose 1.0 mg/kg, apomorphine 0.3 mg/kg s.c. 2 h after compound, read-out: Inhibitory ratio (apomorphine-induced vomiting)) is 89%. Further, the “Number of dead animals / Number of test animals” value in data set [5] is given as 0/5.
Turning to `CCN1CCN(c2cc(-c3ccc(F)cc3)c3c(n2)CCCCC3)CC1` [Example 25, 2-(4-Ethyl-1-piperazinyl)-4-(4-fluorophenyl)-6,7,8,9-tetrahydro-5H-cyclohepta[b]pyridine], the IC50 in data set [7] is 2600 nM; in data set [1], 2.3 nM; in [2], 120 nM; in data set [4] (setting [12]) it was 77 nM. Also, the response vs control in vivo at 1 mg/kg was found to be 113% in [6] (setting [15]), 272% in data set [6] (setting [13]), 207% in data set [6] (setting [14]) and 106% in data set [6] (setting [16]). The inhibition in vivo at 3 mg/kg in [3] (Canis lupus familiaris, sc, dose 3.0 mg/kg, apomorphine 0.3 mg/kg s.c. 2 h after compound, read-out: Inhibitory ratio (apomorphine-induced vomiting)) amounted to 100%. Besides, in data set [5], the “Number of dead animals / Number of test animals” value is listed as 0/5.
Regarding `c1ccc(-c2cc(N3CCNCC3)nc3c2CCC3)cc1` [Example 87, 2-(1-Piperazinyl)-4-phenyl-6,7-dihydro-5H-1-pyrindine], the figures for the “Improvement (spontaneous alternation)” value in data set [8] (dose 0.5 mg/kg i.p.) and in data set [8] (dose 2.0 mg/kg i.p.) were 48.0% and 60.0%, respectively. Besides, the IC50 in [7] was 820 nM; in data set [1], 28 nM; in data set [2] it was 94 nM; in data set [4] (setting [12]) it was 270 nM. Also, the “Improvement (step-down latency)” value in [9] (dose 0.5 mg/kg i.p.) is on record as 48%; in data set [9] (dose 2.0 mg/kg i.p.) it was 77%. Further, the response vs control in vivo at 10 mg/kg in data set [6] (setting [15]) came to 136%; in [6] (setting [13]), 180%; in [6] (setting [14]) it was 194%; in data set [6] (setting [16]), 117%.
For the compound `Fc1ccc(-c2cc(N3CCNCC3)nc3c2CCC3)cc1` [Example 88, 2-(1-Piperazinyl)-4-(4-fluorophenyl)-6,7-dihydro-5H-1-pyrindine], the “Improvement (spontaneous alternation)” value in data set [8] (dose 10.0 mg/kg i.p.) amounted to 37.0%. Also, the IC50 in data set [7] was 670 nM; in [1], 9.1 nM; in data set [2], 65 nM; in data set [4], 70 nM. Also, the “Improvement (step-down latency)” value in [9] (dose 2.0 mg/kg i.p.) stood at 60%. The response vs control in vivo at 10 mg/kg in [6] (setting [15]) was determined as 120%; in data set [6] (setting [13]), 329%; in [6] (setting [14]), 209%; in [6] (setting [16]), 136%. In addition, the inhibition in vivo at 3 mg/kg in data set [3] (setting [17]) amounted to 94%.
`Fc1ccc(-c2cc(N3CCNCC3)nc3c2CCCCC3)cc1` [Example 97, 2-(1-Piperazinyl)-4-(4-fluorophenyl)-6,7,8,9-tetrahydro-5H-cyclohepta[b]pyridine]: the “Improvement (spontaneous alternation)” value in [8] (dose 10.0 mg/kg i.p.) was 32.0%. For the same compound, the IC50 in [7] is 4100 nM; in [1], 5.1 nM; in data set [2] it was 890 nM; in [4] (setting [12]), 260 nM. The “Improvement (step-down latency)” value in data set [9] (dose 0.5 mg/kg i.p.) is listed as 38%; in data set [9] (dose 2.0 mg/kg i.p.) it was 36%. The response vs control in vivo at 10 mg/kg in data set [6] (setting [15]) is 128%; in [6] (setting [13]), 232%; in data set [6] (setting [14]), 176%; in data set [6] (setting [16]), 125%.
Take `Cc1nc(N2CCN(c3ccccc3)CC2)cc(-c2ccc(F)cc2)c1-c1ccc(F)cc1` [Test Compound A, 4,5-Bis-(4-fluorophenyl)-6-methyl-2-(4-phenylpiperazino)pyridine, reference compound]: the “binding property to serotonin (S2) receptors (in words)” value in [1] is reported as “no binding property”. Besides, the IC50 in [1], in data set [2] and in data set [4] (setting [12]) was greater than 10000 nM throughout. The inhibition in vivo at 3 mg/kg in data set [3] (setting [17]) came to 11%. The “effect on apomorphine-induced vomiting (in words)” value in data set [3] (dog, in vivo) is “no inhibitory effect”. Also, the psychotropic activity result in data set [10] is listed as “did not show any psychotropic activity”. Moreover, the “binding property to dopamine (D2) receptors (in words)” value in [4] is “no binding property”.
